Source: patent US11807625B2, “Capsid inhibitors for the prevention of HIV” (Gilead Sciences, Inc., priority 2019, dated 2023)
Values joined by “and” are separate entries in the source; they are usually repeats but may differ in a detail not shown here. Equal values may be shown once.

Test: PK of compound of Formula (Ia) after single subcutaneous dose of solution formulations in beagle dogs
Type: in vivo
Details: individual dogs
Procedure: Formulations containing the compound of Formula (Ia), or a pharmaceutically acceptable salt thereof, were prepared as solutions and optionally administered subcutaneously or intramuscularly to rats, rabbits, and/or dogs.
(§1) A solution of about 400 mg/mL of the compound of Formula (Ia) having 17.00 w/w % water, 36.40 w/w % PEG 300, 35.20 w/w % of a sodium salt of a compound of Formula (Ia), 5.00 w/w % ethanol, and 6.40 w/w % poloxamer 188 was prepared. The solution was administered subcutaneously to male beagle dogs at a dose level of about 12 mg/kg and male Wistar Han rats at a dose level of about 50 mg/kg. The pharmacokinetic profiles were determined, and the results for dogs are summarized in Table and Table, while the results for rats are summarized in Table and Table below.
as §1, with “500” for “400”, “14.06” for “17.00”, “30.12” for “36.40”
A solution of about 300 mg/mL of the compound of Formula (Ia) having 23.33 w/w % water, 48.99 w/w % PEG 300, 26.47 w/w % of a sodium salt of a compound of Formula (Ia), and 1.21 w/w % poloxamer 188 was prepared. The solution was administered subcutaneously to male beagle dogs at a dose level of about 6 mg/kg and male Wistar Han rats at a dose level of about 50 mg/kg. The pharmacokinetic profiles were determined, and the results for dogs are summarized in Table and Table, while the results for rats are summarized in Table and Table below.
as §1, with “18.80” for “17.00”, “40.25” for “36.40”, “34.38” for “35.20”, “1.57” for “6.40”
as §1, with “500” for “400”, “16.29” for “17.00”, “34.88” for “36.40”, “41.92” for “35.20”, “1.91” for “6.40”
as §1, with “20.90” for “17.00”, “44.72” for “36.40”, “and 34.38” for “35.20”, “(Ia)” for “(Ia), 5.00 w/w % ethanol, and 6.40 w/w % poloxamer 188”
A solution of about 400 mg/mL of the compound of Formula (Ia) having 19.90 w/w % water, 42.59 w/w % PEG 300, 34.38 w/w % of a sodium salt of a compound of Formula (Ia), and 3.13 w/w % poloxamer 188 was prepared. The solution was administered subcutaneously to male beagle dogs at a dose level of about 12 mg/kg and male Wistar Han rats at a dose level of about 50 mg/kg. […]

Plasma concentration (0 h, SC 6 mg/kg, solution V, 300 mg/mL): BLQ | Plasma concentration (0 h, SC 12 mg/kg, solution T, 400 mg/mL): BLQ | Plasma concentration (0 h, SC 12 mg/kg, solution U, 500 mg/mL): BLQ | Plasma concentration (1.00 h, SC 6 mg/kg, solution V, 300 mg/mL): BLQ | Plasma concentration (1.00 h, SC 12 mg/kg, solution T, 400 mg/mL, 12 mg/kg): 10.5 nM and 4.75 nM and 2.96 nM | Plasma concentration (1.00 h, SC 12 mg/kg, solution U, 500 mg/mL, 12 mg/kg): 4.85 nM and 2.05 nM and 9.86 nM | Plasma concentration (3.00 h, SC 6 mg/kg, solution V, 300 mg/mL, 6 mg/kg): BLQ and 3.25 nM | Plasma concentration (3.00 h, SC 12 mg/kg, solution T, 400 mg/mL, 12 mg/kg): 26.1 nM and 18.6 nM and 9.64 nM | Plasma concentration (3.00 h, SC 12 mg/kg, solution U, 500 mg/mL, 12 mg/kg): 22.9 nM and 7.00 nM and 36.1 nM | Plasma concentration (8.00 h, SC 6 mg/kg, solution V, 300 mg/mL, 6 mg/kg): 11.6 nM and 11.4 nM | Plasma concentration (8.00 h, SC 12 mg/kg, solution T, 400 mg/mL, 12 mg/kg): 84.5 nM and 50.3 nM | Plasma concentration (8.00 h, SC 12 mg/kg, solution U, 500 mg/mL, 12 mg/kg): 68.7 nM and 26.4 nM and 88.4 nM | Plasma concentration (24.0 h, SC 6 mg/kg, solution V, 300 mg/mL, 6 mg/kg): 25.7 nM and 22.6 nM | Plasma concentration (24.0 h, SC 12 mg/kg, solution T, 400 mg/mL, 12 mg/kg): 254 nM and 187 nM | Plasma concentration (24.0 h, SC 12 mg/kg, solution U, 500 mg/mL, 12 mg/kg): 101 nM and 92.7 nM and 207 nM | Plasma concentration (48.0 h, SC 6 mg/kg, solution V, 300 mg/mL, 6 mg/kg): 27.9 nM and 29.4 nM | Plasma concentration (48.0 h, SC 12 mg/kg, solution T, 400 mg/mL, 12 mg/kg): 166 nM and 380 nM and 179 nM | Plasma concentration (48.0 h, SC 12 mg/kg, solution U, 500 mg/mL, 12 mg/kg): 94.1 nM and 94.8 nM | Plasma concentration (72.0 h, SC 6 mg/kg, solution V, 300 mg/mL, 6 mg/kg): 29.6 nM and 31.5 nM | Plasma concentration (72.0 h, SC 12 mg/kg, solution T, 400 mg/mL, 12 mg/kg): 105 nM and 452 nM and 112 nM | Plasma concentration (72.0 h, SC 12 mg/kg, solution U, 500 mg/mL, 12 mg/kg): 62.3 nM and 64.0 nM | Plasma concentration (96.0 h, SC 6 mg/kg, solution V, 300 mg/mL, 6 mg/kg): 28.8 nM and 29.6 nM | Plasma concentration (96.0 h, SC 12 mg/kg, solution T, 400 mg/mL, 12 mg/kg): 89.8 nM and 523 nM and 83.8 nM | Plasma concentration (96.0 h, SC 12 mg/kg, solution U, 500 mg/mL, 12 mg/kg): 45.7 nM and 62.6 nM | Plasma concentration (168 h, SC 6 mg/kg, solution V, 300 mg/mL, 6 mg/kg): 34.5 nM and 41.4 nM | Plasma concentration (168 h, SC 12 mg/kg, solution T, 400 mg/mL, 12 mg/kg): 105 nM and 408 nM and 151 nM | Plasma concentration (168 h, SC 12 mg/kg, solution U, 500 mg/mL, 12 mg/kg): 55.9 nM and 49.6 nM and 187 nM | Plasma concentration (336 h, SC 12 mg/kg, solution T, 400 mg/mL, 12 mg/kg): 353 nM and 250 nM | Plasma concentration (336 h, SC 12 mg/kg, solution U, 500 mg/mL, 12 mg/kg): 155 nM and 187 nM | Plasma concentration (504 h, SC 12 mg/kg, solution T, 400 mg/mL, 12 mg/kg): 229 nM and 199 nM | Plasma concentration (504 h, SC 12 mg/kg, solution U, 500 mg/mL, 12 mg/kg): 166 nM and 129 nM | Plasma concentration (672 h, SC 12 mg/kg, solution T, 400 mg/mL, 12 mg/kg): 106 nM and 90.6 nM | Plasma concentration (672 h, SC 12 mg/kg, solution U, 500 mg/mL, 12 mg/kg): 106 nM and 101 nM and 38.7 nM | Plasma concentration (840 h, SC 12 mg/kg, solution T, 400 mg/mL, 12 mg/kg): 139 nM and 69.8 nM and 63.7 nM | Plasma concentration (840 h, SC 12 mg/kg, solution U, 500 mg/mL, 12 mg/kg): 107 nM and 69.7 nM and 41.2 nM | Plasma concentration (1008 h, SC 12 mg/kg, solution T, 400 mg/mL, 12 mg/kg): 71.1 nM and 74.2 nM | Plasma concentration (1008 h, SC 12 mg/kg, solution U, 500 mg/mL, 12 mg/kg): 83.5 nM and 61.1 nM and 30.4 nM | Plasma concentration (1344 h, SC 12 mg/kg, solution T, 400 mg/mL, 12 mg/kg): 35.6 nM and 30.6 nM | Plasma concentration (1344 h, SC 12 mg/kg, solution U, 500 mg/mL, 12 mg/kg): 38.5 nM and 22.5 nM | Plasma concentration (1680 h, SC 12 mg/kg, solution T, 400 mg/mL, 12 mg/kg): 34.6 nM and 17.3 nM | Plasma concentration (1680 h, SC 12 mg/kg, solution U, 500 mg/mL, 12 mg/kg): 25.7 nM and 27.7 nM and 10.5 nM | Plasma concentration (2016 h, SC 12 mg/kg, solution T, 400 mg/mL, 12 mg/kg): 7.9 nM (2×) and 19.6 nM | Plasma concentration (2016 h, SC 12 mg/kg, solution U, 500 mg/mL, 12 mg/kg): 10.7 nM and 13.8 nM and 6.40 nM | Plasma concentration (2352 h, SC 12 mg/kg, solution T, 400 mg/mL, 12 mg/kg): 7.6 nM and 5.7 nM | Plasma concentration (2352 h, SC 12 mg/kg, solution U, 500 mg/mL, 12 mg/kg): 8.8 nM and 10.2 nM and 3.45 nM | Plasma concentration (3696 h, SC 6 mg/kg, solution V, 300 mg/mL): BLQ | Plasma concentration (4032 h, SC 6 mg/kg, solution V, 300 mg/mL): BLQ
SMILES: CC(C)(C#Cc1ccc(-c2ccc(Cl)c3c(NS(C)(=O)=O)nn(CC(F)(F)F)c23)c([C@H](Cc2cc(F)cc(F)c2)NC(=O)Cn2nc(C(F)(F)F)c3c2C(F)(F)[C@@H]2C[C@H]32)n1)S(C)(=O)=O [compound of Formula (Ia)]
